The values below come from PubChem BioAssay (NCI).

Among the test systems are HOP-62 NSCLC; KM12 colon; NCI-H226 lung; NCI-H23 lung; NCI-H460 lung; OVCAR-8 ovarian; RXF 393 renal; SK-OV-3 ovarian; CCRF-CEM leukemia; SR leukemia.
Experiment in all cases: growth of human tumour cells (NCI), 48 h

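Exposure lasted 48 hours, with cells grown in 96-well plates and compounds tested at five concentrations. At the GI50, growth is halved. TGI: concentration producing complete growth inhibition.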

In the case of `O=Cc1cccc2ccc3ccccc3c12`, the TGI was 52.4 µM in the assay on HOP-62 NSCLC; 25.4 µM with KM12 colon; 74.8 µM with NCI-H226 lung; 66.5 µM in the assay with NCI-H23 lung; 57.8 µM with NCI-H460 lung; more than 100 µM in the assay with OVCAR-8 ovarian. Moreover, the values for the TGI in the assay with RXF 393 renal and in the assay with SK-OV-3 ovarian were 61 µM and 46.5 µM, respectively.

Consider `O=[N+]([O-])c1cc(-c2nc(=S)[nH][nH]2)ccc1O`, for which the TGI in the assay with CCRF-CEM leukemia, with HOP-62 NSCLC, in the assay with KM12 colon, with NCI-H23 lung, with NCI-H460 lung and in the assay on RXF 393 renal was more than 100 µM in each case. For the same molecule, the TGI in the assay with SK-OV-3 ovarian was more than 100 µM.

Turning to `O=C(O)CN(c1ccccc1)S(=O)(=O)c1cccc([N+](=O)[O-])c1`, the TGI in the assay on CCRF-CEM leukemia, in the assay with KM12 colon, in the assay on NCI-H226 lung, with NCI-H23 lung, in the assay on NCI-H460 lung and in the assay with OVCAR-8 ovarian was more than 100 µM throughout. For the same molecule, the TGI with RXF 393 renal and in the assay on SK-OV-3 ovarian was more than 100 µM throughout.

`O=C(C=Nc1ccccc1C(=O)[O-])c1cccs1.O=C(C=Nc1ccccc1C(=O)[O-])c1cccs1.[Ni+2]`: the TGI with CCRF-CEM leukemia, in the assay with HOP-62 NSCLC, with KM12 colon, in the assay on NCI-H23 lung, in the assay with NCI-H460 lung and with OVCAR-8 ovarian was more than 100 µM throughout. For the same molecule, the TGI in the assay with SK-OV-3 ovarian and with SR leukemia was more than 100 µM in each case.

Turning to `COc1cc2c3c(n(CCCN4CCNCC4)c(=O)c2cc1OC)-c1cc2c(cc1C3=O)OCO2`, the GI50 with CCRF-CEM leukemia is 0.0118 µM; in the assay with HOP-62 NSCLC it was 0.0265 µM; in the assay with KM12 colon it was 0.633 µM; in the assay on NCI-H226 lung it was 0.127 µM; in the assay with NCI-H23 lung, 0.104 µM; with NCI-H460 lung, 0.00951 µM. Moreover, the GI50 in the assay with OVCAR-8 ovarian was 0.0803 µM; in the assay with RXF 393 renal it was 0.811 µM; with SK-OV-3 ovarian it was 3.35 µM. Further, the TGI in the assay on CCRF-CEM leukemia was determined as 0.389 µM; in the assay with HOP-62 NSCLC it was 0.138 µM; in the assay on KM12 colon it was 2.24 µM; in the assay on NCI-H226 lung it was 3.71 µM; with NCI-H23 lung it was 1.47 µM; in the assay with NCI-H460 lung it was 2.07 µM. The TGI with OVCAR-8 ovarian was 1.06 µM; with RXF 393 renal, 4.89 µM; in the assay with SK-OV-3 ovarian, 24.8 µM.

On to `CCCCCCCCCCCCCC[n+]1ccccc1`, for which the GI50 in the assay on CCRF-CEM leukemia is 0.334 µM; in the assay on KM12 colon, 0.855 µM; with NCI-H23 lung, 0.507 µM; in the assay with NCI-H460 lung, 1.22 µM; in the assay with SK-OV-3 ovarian, 1.45 µM; in the assay on SR leukemia, 0.499 µM. Moreover, the TGI in the assay with CCRF-CEM leukemia was found to be 1.99 µM; in the assay on KM12 colon, 2.25 µM; in the assay on NCI-H23 lung, 3.02 µM; with NCI-H460 lung it was 2.73 µM; with SK-OV-3 ovarian, 4.26 µM; in the assay on SR leukemia, 2.94 µM.

For the molecule `CC(=O)c1ccccc1NC(=O)C(=O)C(C(=O)c1ccc2ccccc2c1)C1OC(=O)c2ccccc21` (stereo not given), the TGI is 40 µM in the assay with CCRF-CEM leukemia; 28.4 µM in the assay with HOP-62 NSCLC; 52.2 µM with KM12 colon; 7.86 µM in the assay on NCI-H226 lung; 26.8 µM with NCI-H23 lung; more than 100 µM in the assay with NCI-H460 lung. In addition, the TGI is 94.8 µM in the assay on OVCAR-8 ovarian and more than 100 µM in the assay on SK-OV-3 ovarian.

With `CN1C(=O)CC2(C)c3cc(O)cc(Br)c3N(C)C12` (stereo not given), the TGI with CCRF-CEM leukemia, in the assay on HOP-62 NSCLC, with KM12 colon, in the assay with NCI-H226 lung, in the assay on NCI-H23 lung and in the assay with NCI-H460 lung was more than 100 µM throughout. The TGI with OVCAR-8 ovarian, in the assay with RXF 393 renal and with SK-OV-3 ovarian was more than 100 µM throughout.

As for `Nc1nc(N)c(CCCCc2ccccc2)c(C=O)n1`, the TGI in the assay with CCRF-CEM leukemia was 40.1 µM; with HOP-62 NSCLC it was more than 100 µM; with KM12 colon it was 40.8 µM; in the assay with NCI-H226 lung, 53.7 µM; with NCI-H23 lung, 41.3 µM; in the assay with NCI-H460 lung, more than 100 µM. Moreover, the TGI in the assay with OVCAR-8 ovarian was 45 µM; in the assay with SK-OV-3 ovarian, 95.5 µM.

`COC(=O)[C@H](CC(C)C)NC(=O)[C@H](Cc1ccccc1)N1CC2C=CC1C2` (stereo not given in full): the TGI in the assay with CCRF-CEM leukemia, in the assay on HOP-62 NSCLC, with KM12 colon, in the assay on NCI-H226 lung, with NCI-H23 lung and with NCI-H460 lung was more than 100 µM throughout. The TGI with OVCAR-8 ovarian, in the assay on RXF 393 renal and with SK-OV-3 ovarian was more than 100 µM throughout.

As to `COC(=O)Cc1c([C@@]2(C)CCCC(C)(C)C2)ccc2c1C(=O)OC2`, the TGI in the assay on CCRF-CEM leukemia was 22.2 µM; with KM12 colon, 30.6 µM; in the assay on NCI-H226 lung it was 28.4 µM; in the assay on NCI-H23 lung, 34.6 µM; with NCI-H460 lung, 33.3 µM; in the assay with OVCAR-8 ovarian, more than 100 µM. Moreover, the values for the TGI with RXF 393 renal and with SK-OV-3 ovarian were 27.9 µM and 32.3 µM, respectively.

On to `CC1(C)NC(=O)N(CCCCCCN2C(=O)NC(C)(C)C2=O)C1=O`, for which the TGI with CCRF-CEM leukemia, with KM12 colon, in the assay on NCI-H226 lung, in the assay with NCI-H23 lung, in the assay on NCI-H460 lung and with OVCAR-8 ovarian was more than 100 µM each time. Besides, the TGI in the assay on RXF 393 renal and in the assay on SK-OV-3 ovarian was more than 100 µM throughout.

Take `O=C(CN1CCN(Cc2ccccc2Cl)CC1)NC1CC(=O)c2c(Br)sc(Br)c21` (stereo not given): the GI50 is 20.7 µM in the assay with CCRF-CEM leukemia; 20.9 µM in the assay on KM12 colon; 23.9 µM in the assay with NCI-H226 lung; 18.3 µM in the assay with NCI-H460 lung; 24.8 µM in the assay with OVCAR-8 ovarian; 54.1 µM in the assay on SK-OV-3 ovarian. Further, the TGI in the assay with CCRF-CEM leukemia is 54.8 µM; in the assay on KM12 colon, 40.6 µM; in the assay with NCI-H226 lung it was 91.8 µM; in the assay on NCI-H460 lung, 35.2 µM; in the assay on OVCAR-8 ovarian it was 54.8 µM; with SK-OV-3 ovarian, more than 100 µM.

Regarding `C[C@@H](N)COc1ccc(-c2cnc3ccc(N[C@H](C)c4cccc(F)c4)nn23)cc1`, the GI50 was 2.68 µM with CCRF-CEM leukemia; 2.29 µM in the assay on HOP-62 NSCLC; 1.62 µM in the assay on NCI-H226 lung; 2.96 µM in the assay with NCI-H23 lung; 1.75 µM in the assay with NCI-H460 lung; 1.84 µM with OVCAR-8 ovarian. In addition, the GI50 in the assay on SK-OV-3 ovarian is 5.05 µM; with SR leukemia, 0.0715 µM. In addition, the TGI with CCRF-CEM leukemia turned out to be 7.88 µM; in the assay with HOP-62 NSCLC, 11.9 µM; in the assay on KM12 colon, 1.5 µM; with NCI-H226 lung it was 7.31 µM; with NCI-H23 lung, 13.1 µM; with NCI-H460 lung it was 3.88 µM. The results for the TGI in the assay on OVCAR-8 ovarian, in the assay with SK-OV-3 ovarian and with SR leukemia were 4.3 µM, 16.9 µM and 1.8 µM, respectively.
